What all share (type): cell-based, human
For assay [1], the system named is Macrophages, venular endothelial cells. Nature of the assay: BioMAP Diversity PLUS lMphg system (Th1 type chronic inflammation, macrophage activation). The following applies: /Mphg system. The method, then: (§1) This study examined activities of small molecules discovered in dolphin serum that had protective profiles against diseases of aging which can impact quality of life and longevity. These molecules were tested across 12 human primary cell-based systems as part of DiscoverX's BioMAP Diversity Plus program. These systems are designed to model complex human tissue and disease biology of the vasculature, skin, lung, and inflammatory tissues. Quantitative measurements of biomarker activities across this broad panel, along with comparative analysis of biological activities of known bioactive agents were used to predict and compare the efficacy and function of the four compounds. Compounds were tested at four concentrations (740 nm and 2.2, 6.7 and 20 μM).
(§2) BioMAP panels consist of human primary cell-based systems designed to model different aspects of the human body in an in vitro format. The 12 systems in the Diversity PLUS panel allow test agent characterization in an unbiased way across a broad set of systems modeling various human disease states. BioMAP systems are constructed with one or more primary cell types from healthy human donors, with stimuli (such as cytokines or growth factors) added to capture relevant signaling networks that naturally occur in human tissue or pathological conditions. Vascular biology is modeled in both a Th1 (3C system) and a Th2 (4H system) inflammatory environment, as well as in a Th1 inflammatory state specific to arterial smooth muscle cells (CASM3C system). Additional systems recapitulate aspects of the systemic immune response including monocyte-driven Th1 inflammation (LPS system) or T cell stimulation (SAg system), chronic Th1 inflammation driven by macrophage activation (lMphg system) and the T cell-dependent activation of B cells that occurs in germinal centers (BT system). The BE3C system (Th1) and the BF4T system (Th2) represent airway inflammation of the lung, while the MyoF system models myofibroblast-lung tissue remodeling. Lastly, skin biology is addressed in the KF3CT system modeling Th1 cutaneous inflammation and the HDF3CGF system modeling wound healing.
(§3) Each test agent generates a signature BioMAP profile that is created from the changes in protein biomarker readouts within individual system environments. Biomarker readouts (7-17 per system) are selected for therapeutic and biological relevance, are predictive for disease outcomes or specific drug effects and are validated using agents with known mechanism of action (MoA). Each readout is measured quantitatively by immune-based methods that detect protein (e.g., ELISA) or functional assays that measure proliferation and viability. BioMAP readouts are diverse and include cell surface receptors, cytokines, chemokines, matrix molecules and enzymes. In total, the Diversity PLUS panel contains 148 biomarker readouts that capture biological changes that occur within the physiological context of the particular BioMAP system. Specific BioMAP activities have been correlated to in vivo biology, and multiparameter BioMAP profiles have been used to distinguish compounds based on MoA and target selectivity across diverse physiological systems.
(§4) The Diversity PLUS panel allows test agent characterization in an unbiased way across a broad set of systems modeling various human disease states. These systems are designed to model complex human tissue and disease biology of the vasculature, skin, lung, and inflammatory tissues. Quantitative measurements of 148 biomarker activities across this broad panel, along with comparative analysis of biological activities from known bioactive agents, were used to predict and compare the efficacy and function of each selected compound at four concentrations (740 nm and 2.2, 6.7 and 20 μM). […]

For assay [2], the system named is Bronchial epithelial cells, dermal fibroblasts. Nature of the assay: BioMAP Diversity PLUS BF4T system (Th2 type lung inflammation). Here is the method: as §1, §2, §3, §4
Assay [3] relates to Bronchial epithelial cells. The experiment in a line: BioMAP Diversity PLUS BE3C system (Th1 type lung inflammation). Here is the method: as §1, §2, §3, §4
A further assay has as its system Lung fibroblasts. The experiment in a line: BioMAP Diversity PLUS MyoF system (myofibroblast differentiation and tissue remodeling). The method, then:
as §1, §2, §3, §4

The subject of assay [4] is Peripheral blood mononuclear cells, B cells. Nature of the assay: BioMAP Diversity PLUS BT system (T cell dependent B cell activation). Here is the method: as §1, §2
(§5) Each test agent generates a signature BioMAP profile that is created from the changes in protein biomarker readouts within individual system environments. Biomarker readouts (7-17 per system) are selected for therapeutic and biological relevance, are predictive for disease outcomes or specific drug effects and are validated using agents with known mechanism of action (MoA). Each readout is measured quantitatively by immune-based methods that detect protein (e.g., ELISA) or functional assays that measure proliferation and viability. BioMAP readouts are diverse and include cell surface receptors, cytokines, chemokines, matrix molecules and enzymes.
(§6) The Diversity PLUS panel allows test agent characterization in an unbiased way across a broad set of systems modeling various human disease states. These systems are designed to model complex human tissue and disease biology of the vasculature, skin, lung, and inflammatory tissues.
(§7) BioMAP systems are constructed with one or more primary cell types from healthy human donors, with stimuli (such as cytokines or growth factors) added to capture relevant signaling networks that naturally occur in human tissue or pathological conditions. Vascular biology is modeled in both a Th1 (3C system) and a Th2 (4H system) inflammatory environment, as well as in a Th1 inflammatory state specific to arterial smooth muscle cells (CASM3C system). Additional systems recapitulate aspects of the systemic immune response including monocyte-driven Th1 inflammation (LPS system) or T cell stimulation (SAg system), chronic Th1 inflammation driven by macrophage activation (lMphg system) and the T cell-dependent activation of B cells that occurs in germinal centers (BT system).

A further assay relates to Dermal fibroblasts. The experiment in a line: BioMAP Diversity PLUS HDF3CGF system (wound healing and matrix/tissue remodeling). The following applies: HDF3CGF system. Here is the method:
as §1, §2, §5, §6, §7

In assay [5] the test system is Venular endothelial cells, peripheral blood mononuclear cells. Nature of the assay: BioMAP Diversity PLUS LPS system (Th1 type chronic inflammation, monocyte activation). Here is the method:
as §1, §2, §5, §6, §7

Assay [6] has the same test system. Nature of the assay: BioMAP Diversity PLUS SAg system (T cell stimulation, Th1 type chronic inflammation). As to conditions: for Significant log10 reduction compared to nontreated controls: CD40: SAg system. The method, then:
as §1, §2, §3, §4

Consider `CCCCC/C=C\C/C=C\C/C=C\C/C=C\CCCC(=O)O[C@H](COC(=O)CCCCCCCCCCCCCCC)COP(=O)([O-])OCC[N+](C)(C)C` [1-palmitoyl-2-arachidonoyl-GPC], for which the “Significant log10 reduction compared to nontreated controls: Monocyte chemoattractant protein 1 (MCP-1)” value in assay [1] (2.2 μM) is −0.12 log10; in assay [1] (6.7 μM) it was −0.13 log10; in assay [1] (20.0 μM) it was −0.18 log10. For the same molecule, in assay [1] (6.7 μM), the “Significant log10 reduction compared to nontreated controls: Secreted interleukin 10 (IL-10)” value is given as −0.18 log10. The “Significant log10 reduction compared to nontreated controls: CD69” value in assay [1] (20.0 μM) is −0.11 log10. Besides, the “Significant log10 reduction compared to nontreated controls: Eotaxin 3 (CCL26)” value in assay [2] (2.2 μM) was −0.11 log10; in assay [2] (6.7 μM) it was −0.24 log10; in assay [2] (20.0 μM), −0.58 log10. Also, the “Significant log10 reduction compared to nontreated controls: Plasminogen activation inhibitor 1 (PAI-1)” value in assay [2] (6.7 μM) was −0.07 log10; in assay [2] (20.0 μM) it was −0.19 log10; in assay [3] (20.0 μM), −0.12 log10; with Dermal fibroblasts (20.0 μM), −0.11 log10. Besides, in assay [3] (6.7 μM), the “Significant log10 reduction compared to nontreated controls: Keratin 8/18” value is −0.08 log10. The “Significant log10 reduction compared to nontreated controls: Interleukin 8 (IL-8)/CXCL8” value in assay [3] (20.0 μM) was −0.12 log10. For the same molecule, in assay [3] (20.0 μM), the “Significant log10 reduction compared to nontreated controls: Matrix metalloproteinase 9 (MMP-9)” value was −0.11 log10. Moreover, the “Significant log10 reduction compared to nontreated controls: Alpha smooth muscle actin (αSMA)” value is given as −0.07 log10 in the assay on Lung fibroblasts (0.7 μM), −0.09 log10 in the assay with Lung fibroblasts (2.2 μM), −0.10 log10 with Lung fibroblasts (6.7 μM) and −0.18 log10 in the assay with Lung fibroblasts (20.0 μM). For the same molecule, the “Significant log10 reduction compared to nontreated controls: Secreted interleukin 17F (IL-17F)” value is −0.12 log10 in assay [4] (BT system, 2.2 μM) and −0.24 log10 in assay [4] (BT system, 20.0 μM). The “Significant log10 reduction compared to nontreated controls: Secreted interleukin 2 (IL-2)” value in assay [4] (BT system, 20.0 μM) is reported as −0.27 log10. For the same molecule, the “Significant log10 reduction compared to nontreated controls: Secreted tumor necrosis factor alpha (TNFα)” value (from here on “Significant log10 reduction … (TNFα)”) in assay [4] (BT system, 20.0 μM) is given as −0.16 log10.
For “lignoceroylcarnitine [Lignoceroylcarnitine (C24)]”, the results for the “Significant log10 reduction compared to nontreated controls: Monocyte chemoattractant protein 1 (MCP-1)” value in assay [1] (2.2 μM), in assay [1] (6.7 μM) and in assay [1] (20.0 μM) were −0.29 log10, −0.16 log10 and −0.11 log10, respectively. Besides, the “Significant log10 reduction compared to nontreated controls: Keratin 8/18” value was −0.07 log10 in assay [2] (0.7 μM), −0.07 log10 in assay [2] (2.2 μM), −0.09 log10 in assay [2] (6.7 μM) and −0.11 log10 in assay [2] (20.0 μM). Also, the “Significant log10 reduction compared to nontreated controls: Interferon-inducible T cell alpha chemoattractant (I-TAC)/CXCL11” value is recorded as −0.05 log10 in assay [3] (0.7 μM) and −0.12 log10 in assay [3] (2.2 μM). The “Significant log10 reduction compared to nontreated controls: Alpha smooth muscle actin (αSMA)” value in the assay on Lung fibroblasts (0.7 μM) is given as −0.08 log10; with Lung fibroblasts (2.2 μM), −0.13 log10; in the assay with Lung fibroblasts (6.7 μM) it was −0.18 log10; in the assay with Lung fibroblasts (20.0 μM), −0.20 log10. The “Significant log10 reduction compared to nontreated controls: B cell proliferation” value in assay [4] (BT system, 0.7 μM) is given as −0.15 log10; in assay [4] (BT system, 2.2 μM), −0.09 log10; in assay [4] (BT system, 6.7 μM), −0.09 log10; in assay [4] (BT system, 20.0 μM) it was −0.07 log10. Also, the “Significant log10 reduction … (TNFα)” value in assay [4] (BT system, 2.2 μM) is −0.10 log10. Moreover, in assay [4] (BT system, 6.7 μM), the “Significant log10 reduction compared to nontreated controls: Secreted interleukin 2 (IL-2)” value is given as −0.11 log10. Also, in assay [4] (BT system, 20.0 μM), the “Significant log10 reduction compared to nontreated controls: Secreted interleukin 6 (IL-6)” value was −0.13 log10. Also, the “Significant log10 reduction compared to nontreated controls: Secreted interleukin 17A (IL-17A)” value in assay [4] (BT system, 20.0 μM) is given as −0.25 log10.
For `C=CCCCCCCCCC(=O)O` [10-undecanoate (C11:1n1), 10-undecanoate], the “Significant log10 reduction compared to nontreated controls: Secreted prostaglandin E2 (PGE2)” value in assay [5] (LPS system, 0.7 μM) is listed as −0.11 log10; in assay [5] (LPS system, 2.2 μM) it was −0.08 log10; in assay [5] (LPS system, 6.7 μM), −0.20 log10. Besides, the “Significant log10 reduction compared to nontreated controls: CD40” value in assay [5] (LPS system, 20.0 μM) was −0.11 log10; in assay [6] (0.7 μM), −0.07 log10; in assay [6] (2.2 μM) it was −0.14 log10; in assay [6] (6.7 μM), −0.09 log10. Moreover, the “secretion of prostaglandin E2 (PGE2)” value in assay [5] (human cell system mimicking T-cell and monocyte driven chronic inflammation and cardiovascular diseases (FIG. 4)) is “lowered”. Besides, in assay [1] (20.0 μM), the “Significant log10 reduction compared to nontreated controls: Secreted interleukin 10 (IL-10)” value is −0.21 log10. For the same molecule, the CD40 entry in assay [6] (human cell system mimicking T-cell driven chronic inflammation and autoimmune diseases, 740 nm, 2.2 μM, and 6.7 μM (FIG. 3)) is given as “lowered”. In addition, in assay [6] (human cell system mimicking T-cell driven chronic inflammation and autoimmune diseases, concentrations ranging from 740 nm to 6.7 μM (FIG. 2)), the T cell proliferation result is on record as “decreased”. For the same molecule, the entries for the “Significant log10 reduction compared to nontreated controls: Tissue plasminogen activator (tPA)” value in assay [3] (2.2 μM), in assay [3] (6.7 μM) and in assay [3] (20.0 μM) were −0.08 log10, −0.11 log10 and −0.12 log10, respectively. Moreover, the “Significant log10 reduction compared to nontreated controls: Secreted interleukin 17A (IL-17A)” value in assay [4] (BT system, 2.2 μM) is −0.25 log10; in assay [4] (BT system, 20.0 μM), −0.20 log10. For the same molecule, the “Significant log10 reduction … (TNFα)” value in assay [4] (BT system, 20.0 μM) was −0.12 log10. For the same molecule, the “interleukin 17A (IL-17A)” value in assay [4] (human cell system mimicking asthma, autoimmunity and allergies (FIG. 5)) is reported as “lowered”. Besides, the “Significant log10 reduction compared to nontreated controls: Macrophage colony-stimulating factor (M-CSF)” value is given as −0.11 log10 with Dermal fibroblasts (0.7 μM) and −0.07 log10 with Dermal fibroblasts (2.2 μM).
